Values joined by “and” are separate entries in the source; they are usually repeats but may differ in a detail not shown here. Identical values can stand only once.
Legend:
AML cell line U937 = test: Western immunoblotting of U937 cells for acetylated tubulin, p21 and PARP; format: cell-based; conditions: 2 μM 5-aza, 10 nM LBH589 or combination, 24 hours, western blot (FIG. 1)
Description: The AML cell line U937 is incubated with LBH589 or 5-aza as single agents or in combination.
U937 cells are treated with 2 μM 5-aza, 10 nM LBH589 or with a combination of 5-aza+LBH589 for 24 hours. Cells are lysed, proteins separated by SDS-PAGE and western immunoblotting analysis done with antibodies against acetylated tubulin, p21, PARP and β-actin (control for loading).

[1] = tested on: primary human AML blast cells; test: Loss of viability of primary patient AML cells, trypan-blue exclusion; format: cell-based; conditions: one table row per patient (1-6)
Description: To further test the combination of LBH589+5-aza to induce cell death in AML, the U937 AML cell lines and fresh leukemia blast cells from AML patients are incubated with the compounds either as a combination or as single agents. Cell death is either monitored by cells staining for Annexin V (signifying apoptosis) or by counting live cells by trypan-blue exclusion. […] Importantly, no antagonism is observed when the two compounds are combined. […] Trypan-blue exclusion is used to count number of viable cells and percentage of dead cells for each treatment calculated and tabulated.

Nc1ncn([C@@H]2O[C@H](CO)[C@@H](O)[C@H]2O)c(=O)n1 [5-aza, 5-azacytidine]
PARP cleavage as a measure of apoptotic cell death (AML cell line U937): only a slight PARP cleavage
acetylation of alpha-tubulin (AML cell line U937): not
expression of the cell growth inhibitor p21 (AML cell line U937): induces the expression
% Cell Death ([1]; Aza 1 μM, listed as Aza): 8.6% and 16.5% and 25.9% and 13.1% and 15% and 19.3%
% Cell Death ([1]; Aza 2 μM, listed as Aza): 10.1% and 19.3% and 28.5% and 15.9% and 22.6% and 40.4%

Cc1[nH]c2ccccc2c1CCNCc1ccc(/C=C/C(=O)NO)cc1 [LBH589, N-hydroxy-3-[4-[[[2-(2-methyl-1H-indol-3-yl)-ethyl]-amino]methyl]phenyl]-2E-2-propenamide]
PARP cleavage as a measure of apoptotic cell death (AML cell line U937): only a slight PARP cleavage
acetylation of alpha-tubulin (AML cell line U937): induces increased acetylation
expression of the cell growth inhibitor p21 (AML cell line U937): induces the expression
% Cell Death ([1]; LBH-589 10 nM): 15.4% and 22.3% and 41.9% and 19.5% and 73.7% and 35.9%
% Cell Death ([1]; LBH-589 50 nM): 45.1% and 34.2% and 62.6% and 41.6% and 85.6% and 48.9%
